From patent publication US12077503B2, “Substituted cyclic amides and their use as herbicides” (FMC CORPORATION, priority 2015, dated 2024)

Tests used:
Assay in all cases: Test A postemergence
Type in all cases: in vivo
[1] = system: Kochia (Kochia scoparia); settings: Bassia scoparia, post-emergence, 240 h, read-out: Plant response rating, Kochia; for pest or weed control at 125 g/ha: 125 g ai/ha, postemergence, visual injury after approximately 10 d, 0 to 100 scale (0 no effect, 100 complete control)
How it was run: (§1)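 Visual injury scores from 0, no effect, to 100, complete control, were assigned versus untreated controls roughly 10 d after treatment in the greenhouse. Test chemicals, formulated with surfactant in a non-phytotoxic solvent, were applied to planted seeds as a preemergence soil spray or postemergence to one- to two-leaf plants 2 to 10 cm tall, in loam–sand soil.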

[2] = system: blackgrass (Alopecurus myosuroides); settings: Alopecurus myosuroides, post-emergence, 240 h, read-out: Plant response rating, Blackgrass; for pest or weed control at 125 g/ha: 125 g ai/ha, postemergence, visual injury after approximately 10 d, 0 to 100 scale (0 no effect, 100 complete control)
How it was run: as §1

[3] = system: corn (Zea mays); settings: Zea mays, post-emergence, 240 h; for Corn plant response rating (crop injury, 0 = no effect, 100 = complete kill) at 125 g/ha: 125 g ai/ha, postemergence, visual injury after approximately 10 d, 0 to 100 scale (0 no effect, 100 complete control)
How it was run: as §1

[4] = system: pigweed (Amaranthus retroflexus); settings: Amaranthus retroflexus, post-emergence, 240 h, read-out: Plant response rating, Pigweed; for pest or weed control at 125 g/ha: 125 g ai/ha, postemergence, visual injury after approximately 10 d, 0 to 100 scale (0 no effect, 100 complete control)
How it was run: as §1

[5] = system: ragweed (common ragweed, Ambrosia elatior); settings: Ambrosia artemisiifolia, post-emergence, 240 h, read-out: Plant response rating, Ragweed; for pest or weed control at 125 g/ha: 125 g ai/ha, postemergence, visual injury after approximately 10 d, 0 to 100 scale (0 no effect, 100 complete control)
How it was run: as §1

[6] = system: ryegrass, Italian (Italian ryegrass, Lolium multiflorum); settings: Lolium multiflorum, post-emergence, 240 h, read-out: Plant response rating, Ryegrass, Italian; for pest or weed control at 125 g/ha: 125 g ai/ha, postemergence, visual injury after approximately 10 d, 0 to 100 scale (0 no effect, 100 complete control)
How it was run: as §1

[7] = Postemergence, 31 g ai/ha, visual injury after approx. 10 d, 0 to 100 scale, 0 no effect, 100 complete control

Structure (SMILES) | pest or weed control at 125 g/ha [1] [%] | pest or weed control at 125 g/ha [2] [%] | Corn plant response rating (crop injury, 0 = no effect, 100 = complete kill) at 125 g/ha [3] [%] | pest or weed control at 125 g/ha [4] [%] | pest or weed control at 125 g/ha [5] [%] | pest or weed control at 125 g/ha [6] [%] | pest or weed control at 31 g/ha [1, 7] [%] | pest or weed control at 31 g/ha [2, 7] [%] | Corn plant response rating (crop injury, 0 = no effect, 100 = complete kill) at 31 g/ha [3, 7] [%] | pest or weed control at 31 g/ha [4, 7] [%] | pest or weed control at 31 g/ha [5, 7] [%] | pest or weed control at 31 g/ha [6, 7] [%]
C=CCN1C[C@H](c2ccc(OC)c(F)c2)[C@@H](C(=O)Nc2ccccc2S(C)(=O)=O)C1=O [Compound 724] | 0 | 0 | 0 | 0 | 0 | 0 | – | – | – | – | – | –
Cc1cc([C@H]2CNC(=O)[C@@H]2C(=O)Nc2ccc(F)cc2F)ccc1Br [Compound 725] | 0 | 0 | 0 | 0 | 0 | 0 | – | – | – | – | – | –
Cc1ccc([C@H]2CNC(=O)[C@@H]2C(=O)Nc2cccc(F)c2F)s1 [Compound 729] | 0 | 0 | 0 | 0 | 0 | 0 | – | – | – | – | – | –
CSc1ccccc1NC(=O)[C@H]1C(=O)N(C)C[C@@H]1c1ccc(C)c(C)c1 [Compound 733] | 0 | 0 | 0 | 0 | 0 | 20 | – | – | – | – | – | –
CSc1ccccc1NC(=O)[C@H]1C(=O)N(C)C[C@@H]1c1cc(F)cc(F)c1 [Compound 738] | 20 | 0 | 20 | 20 | 0 | 0 | – | – | – | – | – | –
CN1C[C@H](c2cc(F)cc(F)c2)[C@@H](C(=O)Nc2ccccc2S(C)(=O)=O)C1=O [Compound 739] | 30 | 0 | 20 | 20 | 30 | 20 | – | – | – | – | – | –
CN1C[C@H](c2ccc3c(c2)CCC3)[C@@H](C(=O)Nc2ccccc2F)C1=O [Compound 742] | 30 | 40 | 70 | 0 | 20 | 60 | – | – | – | – | – | –
CN1C[C@H](c2ccc3c(c2)CCC3)[C@@H](C(=O)Nc2cccc(F)c2F)C1=O [Compound 743] | 30 | 30 | 60 | 0 | 0 | 40 | – | – | – | – | – | –
CN1C[C@H](c2ccc3c(c2)CCC3)[C@@H](C(=O)Nc2ccccc2S(C)(=O)=O)C1=O [Compound 744] | 30 | 20 | 40 | 0 | 20 | 30 | – | – | – | – | – | –
CN1C[C@H](c2ccc(C(F)(F)F)cc2)[C@@H](C(=O)Nc2ccc(F)c(F)c2F)C1=O [Compound 745] | 70 | 40 | 90 | 70 | 40 | 50 | – | – | – | – | – | –
CS(=O)(=O)c1ccccc1NC(=O)[C@H]1C(=O)NC[C@@H]1c1cccc2c1OC(F)(F)O2 [Compound 753] | 0 | 0 | 0 | 0 | 0 | 0 | – | – | – | – | – | –
Cc1ccc([C@H]2CNC(=S)[C@@H]2C(=O)Nc2cccc(F)c2C)cc1C [Compound 764] | 0 | 0 | 0 | 0 | 0 | 30 | – | – | – | – | – | –
CSc1ccccc1NC(=O)[C@H]1C(=S)NC[C@@H]1c1ccc(C)c(C)c1 [Compound 766] | 0 | 0 | 0 | 0 | 0 | 0 | – | – | – | – | – | –
COc1cc([C@H]2CN(C)C(=O)[C@@H]2C(=O)Nc2ccccc2F)ccc1C(F)(F)F [Compound 768] | 0 | 0 | 30 | 0 | 0 | 30 | – | – | – | – | – | –
COc1cc([C@H]2CN(C)C(=O)[C@@H]2C(=O)Nc2cccc(F)c2F)ccc1C(F)(F)F [Compound 770] | 40 | 0 | 50 | 30 | 0 | 0 | 0 | 0 | 0 | 0 | 0 | 0
CC(F)(F)c1cccc([C@H]2CNC(=O)[C@@H]2C(=O)Nc2cccc(F)c2F)c1 [Compound 779] | 30 | 70 | 80 | 0 | 20 | 40 | – | – | – | – | – | –
CC(F)(F)c1cccc([C@H]2CNC(=O)[C@@H]2C(=O)Nc2ccccc2S(C)(=O)=O)c1 [Compound 780] | 30 | 50 | 40 | 0 | 0 | 0 | – | – | – | – | – | –
CN1C[C@H](c2cc(F)cc(F)c2)[C@@H](C(=O)Nc2ncccc2F)C1=O [Compound 783] | 0 | 0 | 0 | 0 | 0 | 0 | – | – | – | – | – | –
CS(=O)(=O)c1ccccc1NC(=O)[C@H]1C(=O)NC[C@@H]1c1ccc(OC(F)F)cc1 [Compound 787] | 60 | 0 | 0 | 60 | 50 | 20 | – | – | – | – | – | –
Cc1cc([C@H]2CNC(=O)[C@@H]2C(=O)Nc2ccccc2F)ccc1Cl [Compound 789] | 0 | 40 | 20 | 0 | 0 | 0 | – | – | – | – | – | –
Cc1cc([C@H]2CNC(=O)[C@@H]2C(=O)Nc2cccc(F)c2F)ccc1Cl [Compound 790] | 40 | 40 | 30 | 20 | 30 | 0 | – | – | – | – | – | –
